Measurements from patent US8798939B2, “Methods for designing, selecting and/or optimizing allosteric processing inhibitors for matrix metalloproteinases” (Janssen Pharmaceutica N.V., priority 2011, dated 2014).

Biological target: T1, proMMP9 activation to active MMP9 in HFL-1 cells (Homo sapiens, UniProt P14780)
T1 construct: endogenous in cells; host or cells: HFL-1 (ATCC CCL-153), TNFα plus 30 nM human neutrophil elastase
Experiment: Activation of proMMP9 by human fetal lung fibroblast (HFL-1) cultures (Western blot)
Format: cell-based
Conditions: 3.3 μM, 72 hrs, mAb-L51/82
Procedure: Example 2 was assessed additionally for ability to block the maturation of proMMP9 to active MMP9 in cultures of human fetal lung fibroblasts (HFL-1, American Type Culture Collection #CCL-153). Unlike rat synoviocytes, HFL-1 cells were unable to process proMMP9 to the active form without addition of neutrophil elastase. […] Rather, the function of elastase in this assay may be to inactivate tissue inhibitors of matrix metalloproteinases (TIMPs) that repress endogenous pathways of MMP9 activation (Skold, Liu et al. 1999).
HLF-1 were maintained in monolayer culture in DMEM with 10% FCS and were used between passage numbers 5-15. HLF-1 were embedded in collagen gels as described for rat SCW synoviocytes (vida supra). […] The plates were cultured an additional 72 hrs, at which time MMP9 secreted into the conditioned media was bound to gelatin-sepharose and evaluated by Western blot analysis as described for the rat synoviocyte cultures (vida supra). mAb-51/82 detected three forms of MMP9 in HFL-1 cultures.
A second experiment was performed to determine if the 80 kD form was mature active MMP9 and to determine the potency of Example 2 as an inhibitor of MMP9 maturation in this assay. […] In the absence of Example 2, pAb-1246 readily detected MMP9 with an electrophoretic mobility of approximately 80 kD. […]

T1 sequence (P14780 20-707 limits assumed): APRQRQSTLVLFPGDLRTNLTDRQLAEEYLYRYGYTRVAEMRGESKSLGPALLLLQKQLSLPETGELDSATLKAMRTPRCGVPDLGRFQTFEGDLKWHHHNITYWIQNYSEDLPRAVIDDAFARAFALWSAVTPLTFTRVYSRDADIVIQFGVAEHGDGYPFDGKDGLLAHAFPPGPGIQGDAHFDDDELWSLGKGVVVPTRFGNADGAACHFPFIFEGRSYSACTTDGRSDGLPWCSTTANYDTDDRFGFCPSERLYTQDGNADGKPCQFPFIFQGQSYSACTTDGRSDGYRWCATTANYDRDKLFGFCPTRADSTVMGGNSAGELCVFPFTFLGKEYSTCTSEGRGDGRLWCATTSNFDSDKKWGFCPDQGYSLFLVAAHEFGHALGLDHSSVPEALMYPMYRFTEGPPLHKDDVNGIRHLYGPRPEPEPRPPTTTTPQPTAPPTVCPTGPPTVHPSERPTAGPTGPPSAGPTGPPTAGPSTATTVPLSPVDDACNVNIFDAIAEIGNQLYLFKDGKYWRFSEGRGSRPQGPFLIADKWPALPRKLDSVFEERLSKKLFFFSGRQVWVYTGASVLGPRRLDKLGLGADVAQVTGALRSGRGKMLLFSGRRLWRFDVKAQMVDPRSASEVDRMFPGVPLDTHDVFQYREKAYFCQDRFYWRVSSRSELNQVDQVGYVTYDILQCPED

Cc1nc(C)c(-c2csc(Nc3cc(S(N)(=O)=O)ccc3OC(C)C)n2)s1 [Example 2, 3-(2′,4′-Dimethyl-[4,5′]bithiazolyl-2-ylamino)-4-isopropoxy-benzenesulfonamide.HBr]
Signal Total: 91346 INT * mm^2
